According to patent US20230078764A1 (Yumanity Therapeutics, Inc., priority 2019, published 2023):
Read-outs that look alike come from different tables or passages of the source.

How the values were obtained:
Assay type in all cases: cell-based
human SCD1 = molecular target: T1, human SCD1 (Homo sapiens, UniProt O00767); assay: Growth inhibition of yeast strain expressing human SCD1 as sole desaturase (OLE1 deleted), OD600 readout; conditions: yeast strain expressing human SCD1 as sole desaturase; growth (OD600) after 40 h at 30° C.; read-out: SCD1 IC50
T1 construct: expressed in transfected cells; host or cells: yeast strain with OLE1 deleted, plasmid-borne human SCD1 (selected in SD-Ura)
T1 sequence (O00767 1-359): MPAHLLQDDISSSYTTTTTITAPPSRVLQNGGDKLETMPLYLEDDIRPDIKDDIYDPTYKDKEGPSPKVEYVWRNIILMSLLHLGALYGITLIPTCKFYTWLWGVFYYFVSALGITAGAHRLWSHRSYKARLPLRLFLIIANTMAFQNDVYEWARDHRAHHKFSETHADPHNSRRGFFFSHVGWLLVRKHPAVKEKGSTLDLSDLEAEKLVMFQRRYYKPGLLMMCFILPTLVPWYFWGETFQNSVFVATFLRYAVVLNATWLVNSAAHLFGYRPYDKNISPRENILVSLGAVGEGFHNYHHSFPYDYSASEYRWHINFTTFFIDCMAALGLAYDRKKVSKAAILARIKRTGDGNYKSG

human SCD5 [1] = molecular target: human SCD5 (Homo sapiens, UniProt Q86SK9); assay: Growth inhibition of yeast strain expressing human SCD5 as sole desaturase (OLE1 deleted), OD600 readout
human SCD5 [2] = molecular target: T2, human SCD5 (Homo sapiens, UniProt Q86SK9); assay: as above; conditions: yeast strain expressing human SCD5 as sole desaturase; growth (OD600) after 40 h at 30° C.; read-out: SCD5 IC50
T2 construct: expressed in transfected cells; host or cells: yeast strain with OLE1 deleted, plasmid-borne human SCD5 (selected in SD-Ura)
T2 sequence (Q86SK9 1-330): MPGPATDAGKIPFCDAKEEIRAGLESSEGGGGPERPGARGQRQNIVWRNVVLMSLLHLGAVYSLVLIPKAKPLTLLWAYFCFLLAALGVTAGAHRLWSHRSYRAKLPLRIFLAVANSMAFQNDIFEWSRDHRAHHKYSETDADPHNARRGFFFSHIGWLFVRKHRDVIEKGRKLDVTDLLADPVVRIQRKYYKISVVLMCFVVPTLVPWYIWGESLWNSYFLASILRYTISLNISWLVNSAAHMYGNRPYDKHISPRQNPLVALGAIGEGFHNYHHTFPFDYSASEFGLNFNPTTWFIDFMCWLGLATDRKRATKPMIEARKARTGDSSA

Row | Structure (SMILES) | IC50 (human SCD1) | IC50 (human SCD5 [1]) | IC50 (human SCD5 [2])
1 | CN1N=C(C(=O)Nc2ncc(Cc3cccc(Cl)c3)cn2)CCC1=O [Compound 175, N-(5-(3-chlorobenzyl)pyrimidin-2-yl)-1-methyl-6-oxo-1,4,5,6-tetrahydropyridazine-3-carboxamide] | > 45000 nM | 20100 nM | 
2 | CN1N=C(C(=O)Nc2ccc(Oc3cccc(Cl)c3)cc2)CCC1=O [Compound 159, N-(4-(3-chlorophenoxy)phenyl)-1-methyl-6-oxo-1,4,5,6-tetrahydropyridazine-3-carboxamide] | > 45000 nM |  | 8040 nM
3 | N#Cc1cnc(C(=O)Nc2ccc(Cc3cc(F)cc(F)c3)cn2)cn1 [Compound 639] | 490 nM |  | 39 nM
4 | C[C@H](O)c1ccc(C(=O)Nc2ccc(Cc3cccc(Cl)c3)cn2)cn1 [Compound 519] | 880 nM |  | 220 nM
5 | Cn1nc(C(=O)Nc2ccc(Cc3cccc(Cl)c3)cc2)ccc1=O [Compound 3, N-(4-(3-chlorobenzyl)phenyl)-1-methyl-6-oxo-1,6-dihydropyridazine-3-carboxamide] | 990 nM |  | 450 nM
6 | Cc1cc(C(=O)Nc2ccc(Cc3cc(F)cc(F)c3)cn2)cn(C)c1=O [Compound 676] | 83 nM |  | 10 nM
7 | CN1N=C(C(=O)Nc2ccc(Cc3cc(C(F)(F)F)ccn3)cn2)CCC1=O [Compound 14, 1-methyl-6-oxo-N-(5-((4-(trifluoromethyl)pyridin-2-yl)methyl)pyridin-2-yl)-1,4,5,6-tetrahydropyridazine-3-carboxamide] | 17300 nM |  | 3740 nM
8 | O=C(O)c1ccc(C(=O)Nc2ccc(Cc3cccc(Cl)c3)cn2)nn1 [Compound 451] | 1400 nM |  | > 45000 nM
9 | CC(O)c1ccc(C(=O)Nc2ccc(Cc3ccc(F)c(Cl)c3)cn2)cn1 (stereo not shown) [Compound 522] | 360 nM |  | 60 nM
10 | CN1N=C(CNc2ccc(Cc3cccc(F)c3)cn2)CCC1=O [Compound 397] | > 45000 nM |  | > 45000 nM
11 | CC(=O)c1ccc(C(=O)Nc2ccc(Cc3ccc(F)c(F)c3)cn2)nn1 [Compound 516] | 960 nM |  | 770 nM
12 | Cn1nc(C(=O)Nc2ccc(COc3ccc(F)c(F)c3)cn2)ccc1=O [Compound 664] | 31000 nM |  | 900 nM
13 | Cn1nc(C(=O)Nc2ccc(Cc3cc(F)cc(Cl)c3)cn2)ccc1=O [Example 40, N-(5-(3-chloro-5-fluorobenzyl)pyridin-2-yl)-1-methyl-6-oxo-1,6-dihydropyridazine-3-carboxamide] | 110 nM |  | 10 nM
14 | Cn1cc(NC(=O)c2ccc(COc3cccc(Cl)c3)cn2)ccc1=O [Compound 487] | 4600 nM |  | 310 nM
15 | CS(=O)(=O)c1ccc(C(=O)Nc2ccc(Cc3cccc(F)c3)cn2)cc1 [Compound 423] | > 45000 nM |  | > 45000 nM
16 | CCn1nc(C(=O)Nc2ccc(Cc3cccc(F)c3)cn2)ccc1=O [Compound 68, 1-ethyl-N-(5-(3-fluorobenzyl)pyridin-2-yl)-6-oxo-1,6-dihydropyridazine-3-carboxamide] | 1650 nM |  | 260 nM
17 | CN1N=C(C(=O)Nc2ccc(Cc3cc(Cl)cc(C#N)c3)cn2)CCC1=O [Compound 51, N-(5-(3-chloro-5-cyanobenzyl)pyridin-2-yl)-1-methyl-6-oxo-1,4,5,6-tetrahydropyridazine-3-carboxamide] | > 45000 nM |  | 1560 nM
18 | CC(=O)c1ccc(C(=O)Nc2ccc(Cc3ccc(F)c(F)c3)cn2)nc1 [Compound 507] | 980 nM |  | 1200 nM
19 | O=C(Nc1ccc(Cc2cccc(F)c2)nn1)c1ccc(=O)n(CC2CC2)n1 [Compound 376] | > 45000 nM |  | > 45000 nM
20 | Cc1ncc(C(=O)Nc2ccc(Cc3cc(F)cc(C#N)c3)cn2)cn1 [Compound 595] | 35000 nM |  | 420 nM
21 | Cn1cc(C(=O)Nc2ccc(COc3ccc(F)c(Cl)c3)cn2)ccc1=O [Compound 266] | 1850 nM |  | 400 nM
22 | CN1N=C(C(=O)Nc2ccc(COc3ccc(F)cc3F)cn2)CCC1=O [Compound 607] | > 45000 nM |  | 580 nM
23 | Cn1nc(C(=O)Nc2nnc(Cc3cc(F)cc(Cl)c3)s2)ccc1=O [Compound 346] | 340 nM |  | 550 nM
24 | CNC(=O)c1ccnc(C(=O)Nc2ccc(Cc3cccc(F)c3)cn2)c1 [Compound 578] | > 45000 nM |  | 370 nM
25 | Cn1cc(NC(=O)N2CCC(Cc3cccc(Cl)c3)CC2)ccc1=O [Compound 308] | 22800 nM |  | 3120 nM

Row | Structure (SMILES) | IC50 (human SCD1) | IC50 (human SCD5 [1]) | IC50 (human SCD5 [2])
26 | Cc1cc(C(=O)Nc2ccc(Cc3cccc(F)c3)cn2)nn(C)c1=O [Compound 251] | > 45000 nM |  | 150 nM
27 | Cn1nc(NC(=O)c2ccc(Cc3cccc(F)c3)cn2)ccc1=O [Compound 88, 5-(3-Fluorobenzyl)-N-(1-methyl-6-oxo-1,6-dihydropyridazin-3-yl)picolinamide] | 650 nM |  | 20 nM
28 | N#Cc1cnc(C(=O)Nc2ccc(Cc3cc(F)cc(Cl)c3)cn2)cn1 [Compound 661] | 180 nM |  | 10 nM
29 | Cn1cc(C(=O)Nc2ccc(Cc3ccc(F)c(F)c3)cn2)n(C)c1=O [Compound 643] | 72 nM |  | 10 nM
30 | COc1cc(Cc2ccc(NC(=O)c3cnc(C#N)cn3)nc2)ccc1F [Compound 638] | 3200 nM |  | 98 nM
31 | CN1N=C(C(=O)Nc2ncc(Cc3cc(F)cc(F)c3)s2)CCC1=O [Compound 229, N-(5-(3,5-difluorobenzyl)thiazol-2-yl)-1-methyl-6-oxo-1,4,5,6-tetrahydropyridazine-3-carboxamide] | 140 nM |  | 110 nM
32 | CN1N=C(C(=O)Nc2ncc(Cc3ccccc3Cl)s2)CCC1=O [Compound 230, N-(5-(2-chlorobenzyl)thiazol-2-yl)-1-methyl-6-oxo-1,4,5,6-tetrahydropyridazine-3-carboxamide] | 2880 nM |  | 3800 nM
33 | Cn1cc(C(=O)Nc2ccc(Cc3cc(F)cc(F)c3)cn2)cn1 [Compound 315] | 10 nM |  | 10 nM
34 | Cn1cc(NC(=O)c2ccc(Cc3cccc(F)c3)cn2)ccc1=O [Compound 357] | 4060 nM |  | 50 nM
35 | Cn1nc(C(=O)Nc2ccc(CCc3cccc(Cl)c3)cn2)ccc1=O [Compound 297] | > 45000 nM |  | 1200 nM
36 | Cn1nccc(C(=O)Nc2ccc(Cc3cc(F)cc(F)c3)cn2)c1=O [Compound 532] | 10 nM |  | 10 nM
37 | CCn1nc(C(=O)Nc2ccc(Cc3ccc(Cl)c(Cl)c3)cn2)ccc1=O [Compound 70, N-(5-(3,4-dichlorobenzyl)pyridin-2-yl)-1-ethyl-6-oxo-1,6-dihydropyridazine-3-carboxamide] | 2900 nM |  | 490 nM
38 | Cn1cc(C(=O)Nc2ccc(COc3cccc(Cl)c3)cn2)ccc1=O [Compound 172, N-(5-((3-chlorophenoxy)methyl)pyridin-2-yl)-1-methyl-6-oxo-1,6-dihydropyridine-3-carboxamide] | 2290 nM |  | 370 nM
39 | COc1cc(C(=O)Nc2ccc(Cc3cc(F)cc(F)c3)cn2)nn(C)c1=O [Compound 596] | 1080 nM |  | 26 nM
40 | N#Cc1ccc(C(=O)Nc2ccc(CC3CCCCC3)cn2)cn1 [Compound 327] | > 45000 nM |  | 1320 nM
41 | Cn1nc(C(=O)Nc2ccc(Cc3cccc(F)c3)cn2)cc(Br)c1=O [Compound 280] | 130 nM |  | 20 nM
42 | Cn1cc(C(=O)Nc2ccc(Cc3ccc(F)c(F)c3Cl)cn2)ccc1=O [Compound 572] | 17 nM |  | 10 nM
43 | CN1N=C(C(=O)Nc2ccc(C=C3CCCCC3)cn2)CCC1=O [Compound 477] | > 45000 nM |  | 18000 nM
44 | O=C(Nc1ccc(COc2cccc(Cl)c2)cn1)c1ccc(=O)n(C2CC2)c1 [Compound 291] | 22500 nM |  | 4910 nM
45 | CN1N=C(C(=O)Nc2nc(Cc3cccc(F)c3)ns2)CCC1=O [Compound 408] | > 45000 nM |  | > 45000 nM
46 | CCn1ccc(C(=O)Nc2ccc(Cc3cc(F)cc(Cl)c3)cn2)n1 [Compound 99, N-(5-(3-chloro-5-fluorobenzyl)pyridin-2-yl)-1-ethyl-1H-pyrazole-3-carboxamide] | 140 nM |  | 10 nM
47 | O=C(Nc1ccc(Cc2ccc(F)c(Cl)c2)cn1)c1ccc(CO)nc1 [Compound 112, N-(5-(3-chloro-4-fluorobenzyl)pyridin-2-yl)-6-(hydroxymethyl)nicotinamide] | 10 nM |  | 10 nM
48 | Cn1ccc(C(=O)Nc2ccc(Cc3cccc(F)c3)cn2)cc1=O [Compound 240] | 4390 nM |  | 310 nM
49 | CN1N=C(C(=O)Nc2ccc(COC3(C)CC3)cn2)CCC1=O [Compound 396] | > 45000 nM |  | > 45000 nM
50 | CN1N=C(C(=O)Oc2ccc(NCc3cccc(F)c3)nc2)CCC1=O [Compound 433] | > 45000 nM |  | > 45000 nM
